This assay has as its system dural plasma protein extravasation. As to the kind of experiment: Animal model of dural plasma protein extravasation (PPE). It is filed as in vivo. The note with it: rat. The text has this:
The dural plasma protein extravasation model is an established model for migraine. The ability of a test compound to reduce extravasation of plasma proteins into the dura under assay conditions is considered indicative of the compound's ability to reduce or prevent the dural inflammation thought to be symptomatic of migraine. (see Johnson, K. W., et al., Neuroreport, 8 (1997) 2237-2240.)
To assay compounds for their ability to reduce or prevent dural plasma protein extravasation, male Harlan Sprague-Dawley rats (250-350 g) are anesthetized with sodium pentobarbital (65 mg/kg, i.p.) and placed in a stereotaxic frame (David Kopf Instruments) with the incisor bar set at −2.5 mm. Following a midline sagital scalp incision, 2 pairs of bilateral holes are drilled through the skull (3.2 mm posterially, 1.8 and 3.8 mm laterally, all coordinates referenced to bregma). […]
The amount of FITC-BSA for each sample is quantified with a fluorescence microscope (Zeiss) equipped with a grating monochromator, a spectrophotometer, and a computer driven stage. Fluorescence measurements are taken at 25 points in a 5×5 grid in 500 μm steps on each dural sample with an excitation wavelength of approximately 490 nm and emission intensity measured at approximately 535 nm. The mean and standard deviation of the 25 measurements are determined. […]

In the case of `CCn1ncc(CN2CCN(c3cccnc3N3CCC(O)CC3)CC2)c1C.Cl` [Example 1, 3′-[4-(1-Ethyl-5-methyl-1H-pyrazol-4-ylmethyl)-piperazin-1-yl]-3,4,5,6-tetrahydro-2H-[1,2]bipyridinyl-4-ol hydrochloride], where the note is “at 0.1 mg/Kg, saline control approximately 2.0, full prevention approximately 1.0”, the “ratio of extravasation in the dura, stimulated side over unstimulated side” value is listed as “about 1.15”. The compound also came in with an ID100 (electrical stimulation of trigeminal ganglion, route not stated for the result) of 0.1 mg/kg.
